We go through 3 molecules from ChEMBL document CHEMBL4699412, “Understanding the mechanism of action of pyrrolo[3,2-b]quinoxaline-derivatives as kinase inhibitors” (RSC Med Chem, 2020).

In series [1] the target is Tyrosine-protein kinase Lyn (Homo sapiens) (UniProt P07948). As to the kind of experiment: Inhibition of wild-type human partial length LYN (C219 to Q511 residues) expressed in bacterial expression system at 1 uM by Kinomescan method relative to control.
In series [2] the target is Tyrosine-protein kinase Yes (Homo sapiens) (UniProt P07947). As to the kind of experiment: Inhibition of wild-type human partial length YES (T257 to L543 residues) expressed in bacterial expression system at 1 uM by Kinomescan method relative to control.
Sequence of Tyrosine-protein kinase Yes (Homo sapiens) (P07947 2-543 limits assumed): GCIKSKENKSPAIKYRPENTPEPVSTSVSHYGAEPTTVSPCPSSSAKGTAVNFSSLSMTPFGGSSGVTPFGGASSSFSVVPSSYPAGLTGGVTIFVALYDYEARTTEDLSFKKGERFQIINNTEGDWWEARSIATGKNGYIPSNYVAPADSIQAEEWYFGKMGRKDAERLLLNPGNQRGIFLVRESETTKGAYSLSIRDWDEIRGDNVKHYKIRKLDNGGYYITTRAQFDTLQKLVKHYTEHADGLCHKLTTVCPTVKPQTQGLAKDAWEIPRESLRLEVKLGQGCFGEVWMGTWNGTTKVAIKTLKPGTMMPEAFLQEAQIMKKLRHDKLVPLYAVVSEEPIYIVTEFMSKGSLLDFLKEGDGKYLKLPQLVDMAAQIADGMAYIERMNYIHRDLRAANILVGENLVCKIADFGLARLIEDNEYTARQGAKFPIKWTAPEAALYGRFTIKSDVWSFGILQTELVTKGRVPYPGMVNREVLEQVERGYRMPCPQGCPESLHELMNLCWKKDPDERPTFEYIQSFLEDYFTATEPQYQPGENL
The target of series [3] is Tyrosine-protein kinase BTK (Homo sapiens) (UniProt Q06187). Description: Inhibition of wild-type human full length BTK (M1 to S659 residues) expressed in mammalian expression system at 1 uM by Kinomescan method relative to control.
Sequence of Tyrosine-protein kinase BTK (Homo sapiens) (Q06187 whole entry, the tested form may be a part): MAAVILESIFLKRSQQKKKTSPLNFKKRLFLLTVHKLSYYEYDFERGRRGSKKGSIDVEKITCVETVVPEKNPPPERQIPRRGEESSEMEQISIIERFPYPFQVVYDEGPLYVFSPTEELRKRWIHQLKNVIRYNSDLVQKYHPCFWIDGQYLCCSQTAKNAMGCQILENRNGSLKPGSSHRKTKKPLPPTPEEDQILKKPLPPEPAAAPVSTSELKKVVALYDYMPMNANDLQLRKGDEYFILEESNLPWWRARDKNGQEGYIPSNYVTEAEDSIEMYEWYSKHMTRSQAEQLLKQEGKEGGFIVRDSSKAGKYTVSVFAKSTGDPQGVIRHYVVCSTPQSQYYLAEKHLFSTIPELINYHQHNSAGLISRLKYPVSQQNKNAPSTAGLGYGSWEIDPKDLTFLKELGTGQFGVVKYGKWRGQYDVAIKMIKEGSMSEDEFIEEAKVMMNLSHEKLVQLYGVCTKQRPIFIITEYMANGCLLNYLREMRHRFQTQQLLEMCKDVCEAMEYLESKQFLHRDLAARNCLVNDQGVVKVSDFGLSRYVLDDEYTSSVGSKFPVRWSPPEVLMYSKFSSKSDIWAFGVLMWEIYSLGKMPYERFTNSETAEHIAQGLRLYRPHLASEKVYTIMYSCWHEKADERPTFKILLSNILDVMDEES
Series [4] concerns the target Tyrosine-protein kinase CSK (Homo sapiens) (UniProt P41240). As to the kind of experiment: Inhibition of wild-type human full length CSK (M1 to L450 residues) expressed in bacterial expression system at 1 uM by Kinomescan method relative to control.
Series [5] has as its target T1, Ephrin type-A receptor 3 (Homo sapiens) (UniProt P29320).
T1 sequence (whole entry): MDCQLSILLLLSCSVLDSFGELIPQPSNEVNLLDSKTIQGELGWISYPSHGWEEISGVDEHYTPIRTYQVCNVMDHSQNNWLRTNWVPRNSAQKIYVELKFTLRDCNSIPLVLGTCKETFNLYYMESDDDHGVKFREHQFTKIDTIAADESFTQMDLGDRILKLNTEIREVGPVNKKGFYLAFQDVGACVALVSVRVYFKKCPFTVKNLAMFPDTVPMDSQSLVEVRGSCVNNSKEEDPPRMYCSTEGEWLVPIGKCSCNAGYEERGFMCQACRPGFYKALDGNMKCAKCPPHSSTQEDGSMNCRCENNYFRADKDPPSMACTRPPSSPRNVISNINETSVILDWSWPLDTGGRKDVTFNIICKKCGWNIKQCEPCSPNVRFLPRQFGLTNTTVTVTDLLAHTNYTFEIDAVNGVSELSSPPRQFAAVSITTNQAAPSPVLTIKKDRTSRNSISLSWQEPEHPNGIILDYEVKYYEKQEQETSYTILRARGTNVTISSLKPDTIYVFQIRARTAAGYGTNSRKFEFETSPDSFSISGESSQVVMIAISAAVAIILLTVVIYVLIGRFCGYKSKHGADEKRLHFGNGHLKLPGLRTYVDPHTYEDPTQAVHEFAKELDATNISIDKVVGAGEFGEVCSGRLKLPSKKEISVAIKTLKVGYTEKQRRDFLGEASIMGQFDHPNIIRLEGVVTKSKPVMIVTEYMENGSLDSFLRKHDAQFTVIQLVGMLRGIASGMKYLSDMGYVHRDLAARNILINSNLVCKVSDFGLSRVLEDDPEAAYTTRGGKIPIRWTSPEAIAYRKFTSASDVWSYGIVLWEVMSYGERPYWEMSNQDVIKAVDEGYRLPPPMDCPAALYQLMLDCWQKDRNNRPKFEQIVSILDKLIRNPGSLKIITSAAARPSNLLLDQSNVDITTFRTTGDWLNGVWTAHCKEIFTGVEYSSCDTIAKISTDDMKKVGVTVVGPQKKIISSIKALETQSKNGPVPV
As to the kind of experiment: Binding affinity to EPHA3 (unknown origin) assessed as increase in change in melting temperature by differential scanning fluorimetric analysis.

The target of a further series is T2, Ephrin type-B receptor 4 (Homo sapiens, UniProt P54760).
T2 sequence (P54760 whole entry): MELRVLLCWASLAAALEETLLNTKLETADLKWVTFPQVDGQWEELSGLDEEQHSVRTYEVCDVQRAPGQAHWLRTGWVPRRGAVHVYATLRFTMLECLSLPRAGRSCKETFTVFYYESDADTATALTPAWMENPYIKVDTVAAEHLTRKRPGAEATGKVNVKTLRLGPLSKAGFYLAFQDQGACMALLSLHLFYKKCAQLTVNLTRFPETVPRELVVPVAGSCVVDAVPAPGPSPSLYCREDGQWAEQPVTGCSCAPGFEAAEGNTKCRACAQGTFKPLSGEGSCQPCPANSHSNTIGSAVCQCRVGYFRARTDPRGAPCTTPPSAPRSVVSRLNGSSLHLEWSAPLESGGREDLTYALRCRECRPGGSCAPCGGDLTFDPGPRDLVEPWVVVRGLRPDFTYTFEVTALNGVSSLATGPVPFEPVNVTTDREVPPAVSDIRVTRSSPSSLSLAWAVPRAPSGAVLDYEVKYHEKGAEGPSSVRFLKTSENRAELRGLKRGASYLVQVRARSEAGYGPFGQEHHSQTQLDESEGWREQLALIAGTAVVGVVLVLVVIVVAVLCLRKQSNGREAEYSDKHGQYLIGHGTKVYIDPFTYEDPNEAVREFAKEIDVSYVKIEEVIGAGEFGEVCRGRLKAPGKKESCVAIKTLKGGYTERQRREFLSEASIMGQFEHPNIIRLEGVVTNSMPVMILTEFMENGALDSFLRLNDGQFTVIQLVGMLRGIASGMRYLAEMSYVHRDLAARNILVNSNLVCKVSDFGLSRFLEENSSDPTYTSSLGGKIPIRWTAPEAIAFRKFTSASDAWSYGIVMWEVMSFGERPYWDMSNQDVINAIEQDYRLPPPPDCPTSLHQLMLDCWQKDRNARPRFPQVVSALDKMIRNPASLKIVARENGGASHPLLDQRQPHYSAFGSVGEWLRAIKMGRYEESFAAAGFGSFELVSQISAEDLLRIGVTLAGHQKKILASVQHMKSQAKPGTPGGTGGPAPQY
Description: Inhibition of full-length human EPHB4 expressed in MEF cells assessed as autophosphorylation by sandwitch-ELISA. The format is cell-based.

Series [6] can be described thus: Toxicity in NOD-SCID nude mouse xenografted with human Ri1 cells assessed as swelling surrounding the area of injection at 100 mg/kg, ip. The format is organism-based. The note with it: in vivo.
Series [7] is described as follows: Toxicity in NOD-SCID nude mouse xenografted with human Ri1 cells assessed as body weight loss at 100 mg/kg, ip. It is filed as organism-based. Conditions: in vivo.
Series [8] relates to HUVEC. Description: Antiangiogenic activity against HUVEC cells assessed as reduction in tube formation incubated for 15 hrs by matrigel-based assay relative to control. It is filed as functional, Homo sapiens.
For series [9], the system named is HUVEC. Description: Antiangiogenic activity against HUVEC cells assessed as reduction in total branching points incubated for 15 hrs by matrigel-based assay relative to control. It is filed as functional, Homo sapiens.
Series [10] has as its system HUVEC. As to the kind of experiment: Antiangiogenic activity against HUVEC cells assessed as reduction in total loops incubated for 15 hrs by matrigel-based assay relative to control. It is filed as functional, Homo sapiens.
Series [11] can be described thus: cells. Conditions: Homo sapiens, SU-DHL-1, 72 h.
Another series concerns Maver1. As to the kind of experiment: cells. Conditions: Homo sapiens, Maver1, 72 h.
The test system of another series is JeKo-1. Description: cells. Conditions: Homo sapiens, JeKo-1, 72 h.
Series [12] can be described thus: cells. The note with it: Homo sapiens, MEC1, 72 h.
Series [13] is described as follows: cells. The note with it: Homo sapiens, PCL12, 72 h.
Series [14] can be described thus: cells. Conditions: Homo sapiens, Ri-1, 72 h.
The nature of series [15]: Antitumor activity against human Ri1 cells xenografted in NOD-SCID mouse assessed as fold change in tumor size at 100 mg/kg, ip administered for 2 weeks by caliper method relative to control. The format is functional, Ri-1.
The nature of series [16]: Toxicity in NOD-SCID nude mouse xenografted with human Ri1 cells assessed as body weight loss at 100 mg/kg, ip once every 5 days. Conditions: in vivo, 360 h.

Sequence of Tyrosine-protein kinase Lyn (Homo sapiens) (P07948 2-512 limits assumed): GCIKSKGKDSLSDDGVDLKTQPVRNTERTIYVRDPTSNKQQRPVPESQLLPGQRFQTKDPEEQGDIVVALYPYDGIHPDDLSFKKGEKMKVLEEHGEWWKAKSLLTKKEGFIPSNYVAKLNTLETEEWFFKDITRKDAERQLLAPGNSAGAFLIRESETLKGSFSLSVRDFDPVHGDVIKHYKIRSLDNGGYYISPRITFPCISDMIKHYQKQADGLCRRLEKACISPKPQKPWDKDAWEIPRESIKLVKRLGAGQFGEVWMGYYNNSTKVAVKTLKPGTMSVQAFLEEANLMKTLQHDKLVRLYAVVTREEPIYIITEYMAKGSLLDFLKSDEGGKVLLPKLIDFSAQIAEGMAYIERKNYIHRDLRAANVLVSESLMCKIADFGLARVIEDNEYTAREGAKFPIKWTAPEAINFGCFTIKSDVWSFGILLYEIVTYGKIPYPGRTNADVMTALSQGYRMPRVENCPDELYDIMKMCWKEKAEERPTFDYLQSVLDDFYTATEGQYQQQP
Sequence of Tyrosine-protein kinase CSK (Homo sapiens) (P41240 2-450 limits assumed): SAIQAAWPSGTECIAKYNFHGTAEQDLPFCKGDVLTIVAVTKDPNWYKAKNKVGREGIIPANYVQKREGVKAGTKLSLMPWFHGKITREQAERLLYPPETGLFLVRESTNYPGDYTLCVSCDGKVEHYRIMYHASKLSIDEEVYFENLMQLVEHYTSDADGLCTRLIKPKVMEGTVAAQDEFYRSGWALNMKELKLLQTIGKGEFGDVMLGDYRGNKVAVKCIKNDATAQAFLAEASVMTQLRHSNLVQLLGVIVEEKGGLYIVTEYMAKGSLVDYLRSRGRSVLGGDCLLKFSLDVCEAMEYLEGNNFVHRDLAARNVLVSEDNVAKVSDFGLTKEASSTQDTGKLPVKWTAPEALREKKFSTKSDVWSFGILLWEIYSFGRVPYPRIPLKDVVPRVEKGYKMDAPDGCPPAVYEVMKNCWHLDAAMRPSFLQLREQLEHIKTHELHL

Turning to `Cc1ccc(-n2nc(C(C)(C)C)cc2NC(=O)Nc2ccc(-n3c(N)c(C(N)=O)c4nc5ccc(NCCCN)cc5nc43)cc2)cc1`, the % control in series [1] is 0.5%; in series [2], 1.9%; in series [3], 3.3%; in [4], 0.65%.

As for `Cc1ccc(-n2nc(C(C)(C)C)cc2NC(=O)Nc2ccc(-n3c(N)c(C(N)=O)c4nc5ccccc5nc43)cc2)cc1`, the ΔTm in series [5] stood at 17.3 °C. Besides, the EC50 on Ephrin type-B receptor 4 was determined as 360 nM. Further, the % control was 0.85% in series [1], 9.6% in series [2], 0.95% in [3] and 0.9% in series [4]. The Activity entry in series [6] and in series [7] was “Toxic” in each case. Moreover, the entries for the “inhibition (INH)” value in the series with HUVEC [8], in the series with HUVEC [9] and in the series with HUVEC [10] were 65%, 90% and 100%, respectively. The IC50 in the series “cells [11]”, in the series with Maver1, with JeKo-1, in the series “cells [12]”, in the series “cells [13]” and in the series “cells [14]” was 600 nM each time.

For `CC(C)(C)c1cc(NC(=O)Nc2ccc(-n3c(N)c(C(N)=O)c4nc5ccccc5nc43)cc2)n(-c2ccc3ncccc3c2)n1`, the ΔTm in [5] was determined as 19.3 °C. For the same molecule, the EC50 on Ephrin type-B receptor 4 came out at 1100 nM. For the same molecule, in series [15], the “fold change (FC)” value is listed as 3. Also, the IC50 in “cells [11]”, in the series with Maver1, in the series on JeKo-1, in the series “cells [12]”, in the series “cells [13]” and in “cells [14]” was 250 nM in each case. Further, the Activity result in series [16] is reported as “Non-Toxic”.
